Data: PubChem BioAssay AID1645848
In brackets after ≈: the same amount, converted by molar mass.

Details: buffer; pH 7.4; 6.0 h; 150.0 µM

Row | Compound | solubility kinetic
1 | O=S(=O)(Nc1nccs1)c1ccc(NCc2cccc(Cl)c2O)cc1 | 46.1 µg/mL (≈ 117 µM)
2 | c1ccc2[nH]c(Nc3nc(-c4ccncc4)nc4ccccc34)nc2c1 | < 1 µg/mL
3 | O=C1CCc2cc(S(=O)(=O)Nc3ccc(F)c(Cl)c3)ccc2N1 | > 52 µg/mL
4 | O=C(Nc1ccc(S(=O)(=O)Nc2nccs2)cc1)c1ccc(-c2ccccc2)cc1 | < 1 µg/mL
5 | COc1ccccc1Nc1ccnc(N2CCN(C(=O)c3ccc(C)cc3)CC2)n1 | 2.64 µg/mL (≈ 6.54 µM)
6 | Cn1ccc2cc(-c3csc(N4CCC(C(N)=O)CC4)n3)ccc21 | 32.9 µg/mL (≈ 96.7 µM)
7 | COc1ccc(OC)c(-n2c3c(cc(-c4nc(-c5ccc(Cl)cc5)cs4)c2=O)C(=O)CC(C)(C)C3)c1 | < 1 µg/mL
8 | Cc1noc(C)c1-c1ccc2ncnc(NCc3ccc4[nH]ccc4c3)c2c1 | < 1 µg/mL
9 | CC(C)(O)CCc1ccc(OCc2cc(-c3cccc(OC(F)F)c3)c3ncccc3c2)cc1 | < 1 µg/mL
10 | NCC(=O)Nc1ccc(Cl)cc1C(=O)c1ccc[nH]1 | > 41 µg/mL
11 | O=C1Nc2ccc(I)cc2/C1=C/c1cc(Br)c(O)c(Br)c1 | < 1 µg/mL
12 | O=S(=O)(Nc1cnc2ccccc2c1)c1ccc(NCc2cccc(Cl)c2O)cc1 | 1.84 µg/mL (≈ 4.18 µM)
13 | Cc1cnc(-c2ccccc2C(F)F)nc1NCC1CN(c2cnccn2)C1 | > 56 µg/mL
14 | O=C(NCCc1cnc[nH]1)c1ccc(-c2ncc3cnc(-c4cccc(F)c4)cn23)cc1 | 33.7 µg/mL (≈ 79.1 µM)
15 | Nc1nc2c(s1)C(c1ccccc1OCc1ccccc1Cl)CC(=O)N2 (centres undefined) | 2.06 µg/mL (≈ 5.34 µM)
16 | Cc1nn2c(c1-c1ccccc1-c1ccccc1)N(Cc1ccc(O)cc1)CCC2 | < 1 µg/mL
17 | O=C(Nc1nc(-c2ccccc2)cs1)c1ccncc1NS(=O)(=O)c1ccc(F)cc1 | 45.8 µg/mL (≈ 101 µM)
18 | CC(=O)OCCN1C(=O)c2c(C)nc3ccc(S(=O)(=O)N4CCOCC4)cc3c2C1=O | < 1 µg/mL
19 | O=C(Nc1ccc(C(=O)N2CCCC2)cc1)c1ccccc1F | > 46 µg/mL
20 | O=C(/C=C/c1cccnc1)NCCCCC1CCN(C(=O)c2ccccc2)CC1 | > 58 µg/mL

Row | Compound | solubility kinetic
21 | CN1CCN(Cc2ccc(NC(=O)Cc3ccc(Oc4cc(NC(=O)C5CC5)ncn4)cc3)cc2C(F)(F)F)CC1 | 57.3 µg/mL (≈ 101 µM)
22 | Cc1ccc(NC(=O)CSc2ncc(S(=O)(=O)c3ccc(C(C)C)cc3)c(=O)[nH]2)cc1C | > 70 µg/mL
23 | O=S(=O)(Nc1nccs1)c1ccc(NCc2cccc(Cl)c2Cl)cc1 | < 1 µg/mL
24 | O=C(Nc1nc(-c2ccccc2)cs1)c1ccncc1NS(=O)(=O)c1ccc(F)cc1F | > 70 µg/mL
25 | CN(Cc1cnc2nc(N)nc(N)c2n1)c1ccc(C(=O)N[C@@H](CCC(=O)O)C(=O)O)cc1 | > 67 µg/mL
26 | Fc1ccc(Nc2nc(-c3ccccc3)nc3ccccc23)cc1F | < 1 µg/mL
27 | Cc1ccc(S(=O)(=O)Nc2ccccc2CNc2nc(-c3ccccc3)cs2)cc1 | < 1 µg/mL
28 | CCOc1ccc(-c2nc(SCC(=O)Nc3ccc(C)c(C)c3)n3[nH]c(=O)cc3n2)cc1 | < 1 µg/mL
29 | Cc1noc(C)c1C(=O)N1CCC2(CC1)CCN(C(c1ccccc1)c1ccccc1)CC2 | 22 µg/mL (≈ 49.5 µM)
30 | COc1cccc(C(=O)Nc2nc(-c3nnn(-c4ccccc4C(F)(F)F)c3C)ns2)c1 | 1.03 µg/mL (≈ 2.24 µM)
31 | O=C(Nc1ccc(S(=O)(=O)Nc2nccs2)cc1)c1ccnc2ccccc12 | 2.55 µg/mL (≈ 6.2 µM)
32 | CC(O)(C#Cc1ccc2c(c1)N(c1nc(N)ncc1Cl)CC2)c1nccs1 (centres undefined) | 11.9 µg/mL (≈ 29.9 µM)
33 | Cc1nc2ccc(NC(=O)c3cc(S(=O)(=O)N(C)c4ccccc4)ccc3Cl)cc2s1 | < 1 µg/mL
34 | COc1cccc(OC)c1C(=O)Nc1ccccc1C(=O)Nc1cccc(C(F)(F)F)c1 | < 1 µg/mL
35 | O=C(Nc1nc(-c2ccccc2)cs1)c1ccncc1NS(=O)(=O)c1ccc(Cl)cc1 | < 1 µg/mL
36 | Oc1c(CN2CCN(c3ccccn3)CC2)cc(Cl)c2cccnc12 | 11.4 µg/mL (≈ 32.1 µM)
37 | CNC(=O)c1nn(C)c2c1C(C)(C)Cc1cnc(Nc3ccc(N4CCN(C)CC4)cc3)nc1-2 | > 68 µg/mL
38 | N#Cc1ccccc1CSc1nc2ncc(Br)cc2[nH]1 | 1.09 µg/mL (≈ 3.16 µM)
39 | COc1ccc(OC)c(C(=O)Nc2nc(-c3ccccc3)cs2)c1 | < 1 µg/mL
